Assays:
[1] = system: blood mononucleated cells from healthy donor inoculated with MS virion fraction; format: cell-based, human
[2] = system: blood mononucleated cells from healthy donor

Cc1cn([C@H]2C[C@H](N=[N+]=[N-])[C@@H](CO)O2)c(=O)[nH]c1=O [AZT, azidodeoxythymidine]
Vβ16 expansion of the lymphocytes (FACS analysis of T subpopulations) [1]: an absence or an inhibition of Vβ16 expansion
cell mortality (toxicity tests, compound alone) [2]: no significant cell mortality

O=c1[nH]cnc2c1ncn2[C@H]1CC[C@@H](CO)O1 [DDI, dideoxyinosine]
Vβ16 expansion of the lymphocytes (FACS analysis of T subpopulations) [1]: an absence of Vβ16 expansion

Reference: patent US20060088820A1 (priority 1999, published 2006)
